According to BindingDB's records for doi:10.1016/j.bmc.2009.01.019 (Takeda Pharmaceutical, 2009):

Biological target: Glycogen synthase kinase-3 beta (Homo sapiens, UniProt P49841)
Experiment: GSK-3beta Kinase Inhibition Assay
Conditions: pH 7.5; 37 °C
Description: Human GSK-3beta was expressed as the N-terminal FLAG-tagged protein using a baculovirus expression system. The kinase assay was conducted in a 96-well plate assay format. The kinase reactions were initiated by addition of ATP-solution (final 500 nM), and were incubated for 90 min at 37 deg C for GSK-3 beta. The reactions were terminated by the addition of Kinase-Glo reagent containing EDTA. […] The reaction window was calculated from the difference of the average signals obtained from the control (5% DMSO) and the background wells. […] The best-fit lines were obtained by analyzing the logistic fitting equation.

Chain of Glycogen synthase kinase-3 beta (P49841 whole entry): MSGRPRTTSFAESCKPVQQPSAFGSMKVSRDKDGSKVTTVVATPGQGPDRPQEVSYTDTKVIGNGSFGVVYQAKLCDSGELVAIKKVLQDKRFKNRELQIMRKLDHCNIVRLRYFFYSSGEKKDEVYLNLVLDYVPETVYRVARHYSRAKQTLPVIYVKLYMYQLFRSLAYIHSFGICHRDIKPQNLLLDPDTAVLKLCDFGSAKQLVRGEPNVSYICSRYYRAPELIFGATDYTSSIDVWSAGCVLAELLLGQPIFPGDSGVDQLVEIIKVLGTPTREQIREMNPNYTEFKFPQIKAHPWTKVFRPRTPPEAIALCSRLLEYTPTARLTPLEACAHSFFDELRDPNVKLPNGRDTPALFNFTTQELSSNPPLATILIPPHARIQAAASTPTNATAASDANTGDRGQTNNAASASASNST

Q: With COc1ccc(CSc2nnc(-c3ccc4nccn4c3)o2)cc1C(F)(F)F [oxadiazole derivative, 20q] as the molecule, how does the IC50 read?
A: 6.5 nM
